Data on 2 compounds can be found in patent US7714014B2, “Targeting GLI proteins in human cancer by small molecules” (The Regents of the University of California, priority 2005, dated 2010).

Holding throughout (type): cell-based, human
The test system of one test is A549 (NSCLC). Description: Apoptosis analysis (Annexin V FITC, flow cytometry). Particulars: 3 days. The method, then: (§1) Apoptosis was analyzed by using an Annexin V FITC Apoptosis Detection Kit (Biosource, Camarillo, Calif.), according to the manufacturer's protocol. After treatment with different small molecule compounds at various concentrations for about 3 days, cells were harvested by trypsinization, stained and immediately analyzed by flow cytometry (FACScan; Decton Dickinson, Franklin Lake, N.J.). Early apoptotic cells with exposed phosphatidylserine but intact cell membranes will bind to Annexin V-FITC, but not propidium iodide (PI). Cells in necrotic or late apoptotic stages will be labeled with both Annexin V-FITC and PI. “% apoptotic cells” or “% apoptosis” refers to the combined early and late apoptotic cells.
Flow cytometry was also used to examine apoptosis in several NSCLC cell lines after treatment with small molecule compounds of the invention.
Dose titration experiments of small molecule compound FN1-8 was performed using the NSCLC cell lines A549, H358, and H322. A 549, H358, and H322 cells were plated in 6-well plates and incubated with DM SO (control) or 7.5 μM, 10 μM, 15 μM, 20 μM, and 30 μM of FN1-8, respectively, for 3 days. A dramatic and dose-dependent cell killing in these cell lines was observed when FN1-8 was added at 15 μM or more. FN1-8 induced cell killing in A549 and […] at slightly lower concentrations than in H322 cells (data not shown). After 3 days, approximately 28% of the A549 cells and 58% of H358 underwent apoptosis when incubated with 20 μM FN1-8 (Table 3).

The test system of test [1] is SW480 cells transfected with empty pCDNA3 vector or Gli2 cDNA expression construct. As to the kind of experiment: GLI2 over-expression rescue experiment. Particulars: 5 days. The method, then: For transient transfection experiments, cells (2×10^5) were plated in six-well plates using growth medium without antibiotics 24 hrs before transfection. Lipofectamine™ 2000 (Invitrogen Life Technologies; Carlsbad, Calif.) was used to mediate transfection using 2.0 μg of cDNA in pCDNA3 vector or 2.0 μg empty pCDNA3 vector as control, according to the manufacturer's protocol. Then the transfected cells were cultured at 37° C. in a humid incubator with 5% CO2 until they were ready for analysis. Gli2 cDNA was kindly provided by Dr. Fritz Aberger at University of Salzburg (Salzburg, Austria). Gli1 and Gli3 cDNA were kindly provided by Dr. Bert Vogelstein and Dr. Kenneth W. Kinzler at the Sidney Kimmel Comprehensive Cancer Center of the Johns Hopkins University (Baltimore, Md.). TAFIII31 cDNA was kindly provided by Dr. Gregory L. Verdine at Harvard University (Cambridge, Mass.).
As described herein, GLI3 seems to activate transcription of Gli1 and Gli2 genes. […] If so, then transfecting a GLI1 and/or GLI2 expression construct into a cell treated with a small molecule compound of the present invention, should lead to at least a partial rescue of the apoptotic effect mediated by the small molecule compound. Thus, to further examine the specificity of the small molecule compound FN1-5, as well as its inhibitory mechanisms, it was tested whether over-expressing GLI2 protein could attenuate the cell killing effect of FN1-5. In this experiment, the colon cancer cell line SW480 was transfected with either empty pCDNA3 vector or with a Gli2 cDNA expression construct. After selection, the transfected cells were re-plated in 6-well plates at same numbers, and then FN1-5 was added into medium at a final concentration of 50 μM.
To further examine the specificity of the small molecule compound FN1-8, as well as its inhibitory mechanisms, we tested whether over-expressing GLI2 protein could attenuate the cell killing effect of FN1-8. The transfection experiment was performed as described above. After 5 days, apoptosis analysis using flow cytometry was performed to quantify the experiment.

The next test concerns Normal renal cells. Description: Apoptosis analysis (Annexin V FITC, flow cytometry). The method, then:
as §1
In addition, apoptosis induction after the treatment of different doses of FN1-5 (30 and 50 μM) or FN1-8 (10, 30, and 50 μM) in normal human renal cells was examined by flow cytometry.

The subject of test [2] is Primary cultured NSCLC cells. The test is described as above. As to conditions: 3 days. The method, then: Fresh cancer tissue and adjacent normal tissue from patients undergoing curative primary resection of their tumors were collected at the time of surgery (IRB approval H8714-15319-040), and immediately snap-frozen in liquid nitrogen. These tissue samples were kept at −170° C. in a liquid nitrogen freezer until further use. Primary tissue cultures were prepared as follows: Fresh cancer tissue was obtained with consent from patients undergoing resection, cut into small pieces (1-2 mm in diameter), and then digested with Collagenase A (Roche Applied Science, Indianapolis, Ind.) at room temperature for 2 hours according to manufacture's protocol. Single cells from the digestion were spun down and the cell pellets were washed twice using RPMI 1640 supplemented with 10% fetal bovine serum, penicillin (100 IU/ml) and streptomycin (100 μg/ml). Then, the cells were resuspended in the same medium and cultured in 6-well plates at 37° C. in a humid incubator with 5% CO2 until they were ready for further treatments.
as §1
Flow cytometry was also used to examine apoptosis induced by molecule compounds of the invention. in primary cultured NSCLC cells freshly made from tissue samples. […] For example, app.

As for `O=C(NCCc1ccc(O)cc1)C1C(c2ccccc2)=NN(c2ccccc2)C1c1ccccc1` (stereo not shown) [FN1-8, N-(2-(4-Hydroxyphenyl)ethyl)-1,3,5-triphenyl-4,5-dihydro-pyrazole-4-carboxyamide], the “% of apoptotic cells” value is on record as 12.5% in the test with A549 (NSCLC) (A549, 10 μM); 3.1% in the test with Normal renal cells (10 μM); 4.1% in the test on Normal renal cells (30 μM); 6.2% in the test on Normal renal cells (50 μM); 9.8% in test [2] (10 μM); 13.1% in test [2] (30 μM). In addition, in test [2] (50 μM), the “% of apoptotic cells” value stood at 58.0%. In addition, the apoptotic cells in test [1] (SW480 transfected with empty vector) was 48.1%; in test [1] (SW480 transfected with the Gli2 expression construct), 27.7%.
With `O=C(NCCCCCO)C1C(c2ccccc2)=NN(c2ccccc2)C1c1ccccc1` (stereo not shown) [FN1-5, N-(5-Hydroxypentyl)-1,3,5-triphenyl-4,5-dihydro-pyrazole-4-carboxyamide], the “% of apoptotic cells” value in the test with A549 (NSCLC) (A549, 10 μM) is 9.4%; in the test with A549 (NSCLC) (A549, 100 μM) it was 30.0%; in the test with Normal renal cells (30 μM), 5.6%; in the test with Normal renal cells (50 μM) it was 6.6%; in test [2] (30 μM), 11.2%; in test [2] (50 μM), 19.8%. Besides, the “cell killing, Gli2-transfected versus empty vector cells” value in test [1] (50 μM) was “kill less cells transfected with Gli2 than those with empty vector”.
